One experiment concerns the target 5HT1Dα (Homo sapiens, UniProt P28221). The experiment is described as follows: Binding at cloned human 5HT1Dα receptor.
In another experiment the target is T1, human Y4 receptor (Homo sapiens, UniProt P50391).
T1 construct: expressed in transfected cells; host or cells: COS-7 (transient)
Briefly: ^125I-PYY binding to membranes, cloned human Y4 receptor. Conditions: read-out: Binding Affinity Ki vs. ^125I-PYY, Human Receptor Y4; Table 14; stably transfected LM(tk-) cells.

In a further experiment the target is T2, human Y1 receptor (Homo sapiens, UniProt P25929).
T2 construct: expressed in transfected cells; host or cells: COS-7 (transient)
T2 sequence (P25929 1-384): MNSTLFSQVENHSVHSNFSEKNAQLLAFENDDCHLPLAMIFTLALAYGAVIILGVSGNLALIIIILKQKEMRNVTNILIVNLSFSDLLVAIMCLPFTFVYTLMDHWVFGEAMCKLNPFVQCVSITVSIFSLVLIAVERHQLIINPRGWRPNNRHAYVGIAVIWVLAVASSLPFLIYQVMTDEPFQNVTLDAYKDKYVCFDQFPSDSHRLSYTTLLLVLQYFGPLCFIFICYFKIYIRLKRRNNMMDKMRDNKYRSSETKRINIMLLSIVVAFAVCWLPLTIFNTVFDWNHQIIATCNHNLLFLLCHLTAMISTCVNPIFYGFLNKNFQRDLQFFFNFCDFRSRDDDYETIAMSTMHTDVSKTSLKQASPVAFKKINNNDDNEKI
The experiment is described as follows: ^125I-PYY binding to membranes, cloned human Y1 receptor. Conditions: read-out: Binding Affinity Ki vs. ^125I-PYY, Human Receptor Y1; Table 14; stably transfected 293 cells (compound 1 also COS-7).

The target in experiment [1] is T3, human Y5 receptor (Homo sapiens, UniProt Q15761).
T3 sequence (Q15761 1-445): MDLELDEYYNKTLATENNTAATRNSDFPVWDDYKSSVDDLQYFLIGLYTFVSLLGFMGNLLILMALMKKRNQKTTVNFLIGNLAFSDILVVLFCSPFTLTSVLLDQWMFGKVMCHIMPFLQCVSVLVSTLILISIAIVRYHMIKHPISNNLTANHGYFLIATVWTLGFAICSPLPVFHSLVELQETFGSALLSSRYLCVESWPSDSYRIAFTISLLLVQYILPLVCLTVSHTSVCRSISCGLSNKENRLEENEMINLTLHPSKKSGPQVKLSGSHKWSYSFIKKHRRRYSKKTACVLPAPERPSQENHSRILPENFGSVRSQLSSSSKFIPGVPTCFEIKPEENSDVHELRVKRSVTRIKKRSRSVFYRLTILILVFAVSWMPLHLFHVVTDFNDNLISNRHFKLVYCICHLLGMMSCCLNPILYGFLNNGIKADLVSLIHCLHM
Briefly: Radioligand binding to membranes of cells expressing cloned human Y5 receptor. Set-up: Ki Values, Human Y5; apparent Kd; pKd; The isolated clone (CG-19) turned out to contain a full length cDNA; The longest open reading frame encodes a 455 amino acid protein. Conditions: read-out: Binding Affinity Ki vs. ^125I-PYY, Human Receptor Y5; Table 14; stably transfected LM(tk-) cells.

The next experiment deals with T4, α2a (Homo sapiens, UniProt P08913).
T4 sequence (P08913 1-465): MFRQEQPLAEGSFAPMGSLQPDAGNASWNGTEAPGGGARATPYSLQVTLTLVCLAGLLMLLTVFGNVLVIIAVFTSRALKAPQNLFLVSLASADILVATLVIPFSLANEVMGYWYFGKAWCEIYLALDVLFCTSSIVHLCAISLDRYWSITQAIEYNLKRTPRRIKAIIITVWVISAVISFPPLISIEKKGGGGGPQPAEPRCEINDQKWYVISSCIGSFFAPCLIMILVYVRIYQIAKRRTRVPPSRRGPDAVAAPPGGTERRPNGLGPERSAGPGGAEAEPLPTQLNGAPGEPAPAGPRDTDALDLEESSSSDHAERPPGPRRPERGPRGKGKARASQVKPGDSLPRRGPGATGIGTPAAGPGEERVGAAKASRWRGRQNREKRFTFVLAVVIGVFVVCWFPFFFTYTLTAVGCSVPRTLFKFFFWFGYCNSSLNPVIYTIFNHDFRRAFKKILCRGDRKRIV
Briefly: Binding at cloned human α2a adrenergic receptor.

A further experiment has as its target T5, α1d (Homo sapiens, UniProt P25100).
T5 sequence (P25100 1-572): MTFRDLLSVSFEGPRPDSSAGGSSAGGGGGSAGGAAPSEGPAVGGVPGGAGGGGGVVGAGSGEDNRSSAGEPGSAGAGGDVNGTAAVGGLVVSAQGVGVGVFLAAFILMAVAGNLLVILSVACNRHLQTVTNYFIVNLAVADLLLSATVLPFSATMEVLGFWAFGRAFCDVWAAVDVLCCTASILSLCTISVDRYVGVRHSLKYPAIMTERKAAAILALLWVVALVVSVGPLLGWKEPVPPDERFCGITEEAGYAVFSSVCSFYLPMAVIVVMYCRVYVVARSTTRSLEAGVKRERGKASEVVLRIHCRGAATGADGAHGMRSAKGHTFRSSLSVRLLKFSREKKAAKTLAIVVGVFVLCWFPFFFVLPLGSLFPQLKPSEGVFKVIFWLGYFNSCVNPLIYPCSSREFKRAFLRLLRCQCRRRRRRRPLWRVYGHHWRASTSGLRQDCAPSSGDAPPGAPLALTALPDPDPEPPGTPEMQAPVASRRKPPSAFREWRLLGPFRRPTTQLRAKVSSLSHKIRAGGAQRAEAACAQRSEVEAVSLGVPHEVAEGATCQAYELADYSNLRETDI
The experiment is described as follows: Binding at cloned human α1d adrenergic receptor.

In another experiment the target is T6, 5HT2 (Homo sapiens, UniProt P28223).
T6 construct: expressed in transfected cells; host or cells: COS-7 (DEAE-dextran); the same paragraph also names the deposited cell line L-NGC-5HT2 (ATCC CRL 10287)
T6 sequence (P28223 whole entry): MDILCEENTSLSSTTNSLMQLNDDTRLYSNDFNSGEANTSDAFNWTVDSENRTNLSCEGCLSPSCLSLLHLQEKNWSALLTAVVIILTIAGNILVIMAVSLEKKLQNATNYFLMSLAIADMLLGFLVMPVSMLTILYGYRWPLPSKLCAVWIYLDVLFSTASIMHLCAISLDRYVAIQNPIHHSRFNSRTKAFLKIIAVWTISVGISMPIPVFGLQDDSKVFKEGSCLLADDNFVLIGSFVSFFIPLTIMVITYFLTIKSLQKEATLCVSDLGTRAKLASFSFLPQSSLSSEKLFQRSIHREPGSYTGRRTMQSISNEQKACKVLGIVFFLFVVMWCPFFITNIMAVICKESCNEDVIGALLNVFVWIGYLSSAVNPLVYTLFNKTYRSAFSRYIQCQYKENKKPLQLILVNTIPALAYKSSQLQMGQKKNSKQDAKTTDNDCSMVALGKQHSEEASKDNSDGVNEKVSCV
Briefly: Binding at cloned human 5HT2 receptor.

In experiment [2] the target is T3, human Y5 receptor. The experiment is described as follows: Radioimmunoassay of cAMP, cells stably expressing human Y5 receptor. Conditions: block of NPY-induced inhibition of cAMP accumulation, forskolin-stimulated LM(tk-) cells, human Y5. In kind it is cell-based. Set-up: Ki Values, Human Y5; apparent Kd; pKd; The isolated clone (CG-19) turned out to contain a full length cDNA; The longest open reading frame encodes a 455 amino acid protein. A general note: Cyclic AMP is a second messenger, typically raised through Gs and lowered through Gi signalling.
Protocol: LM(tk-) cells stably transfected with the human Y5 receptor were routinely converted from an adherent monolayer to a viable suspension. […] The cell suspension was maintained in a shaking incubator at 37° C., 5% CO2 for 24 hours. […] Alternatively, cells may be returned to adherent cell culture in complete DMEM by distribution into 96-well microtiter plates coated with poly-D-lysine (0.01 mg/ml) followed by incubation at 37° C., 5% CO2 for 24 hours.
The maximum inhibition of cAMP accumulation (Emax) and the concentration producing a half-maximal effect (EC50) were determined by nonlinear regression analysis according to a 4 parameter logistic equation.
The ability of the compounds to antagonize the Y-type receptors is reported as the Kb. […] The results shown are representative of at least three independent experiments.

Molecules are shown by their SMILES.

Chain of 5HT1Dα (P28221 whole entry): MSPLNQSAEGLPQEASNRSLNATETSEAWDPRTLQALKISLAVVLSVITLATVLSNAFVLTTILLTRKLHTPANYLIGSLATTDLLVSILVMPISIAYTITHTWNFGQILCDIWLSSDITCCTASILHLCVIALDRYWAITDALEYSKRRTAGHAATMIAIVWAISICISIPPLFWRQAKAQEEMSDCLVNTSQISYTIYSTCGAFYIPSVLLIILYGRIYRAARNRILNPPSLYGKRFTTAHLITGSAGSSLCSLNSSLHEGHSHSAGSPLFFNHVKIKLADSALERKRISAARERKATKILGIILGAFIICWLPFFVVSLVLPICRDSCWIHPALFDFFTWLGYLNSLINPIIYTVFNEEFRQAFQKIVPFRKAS
T1 sequence (P50391 whole entry): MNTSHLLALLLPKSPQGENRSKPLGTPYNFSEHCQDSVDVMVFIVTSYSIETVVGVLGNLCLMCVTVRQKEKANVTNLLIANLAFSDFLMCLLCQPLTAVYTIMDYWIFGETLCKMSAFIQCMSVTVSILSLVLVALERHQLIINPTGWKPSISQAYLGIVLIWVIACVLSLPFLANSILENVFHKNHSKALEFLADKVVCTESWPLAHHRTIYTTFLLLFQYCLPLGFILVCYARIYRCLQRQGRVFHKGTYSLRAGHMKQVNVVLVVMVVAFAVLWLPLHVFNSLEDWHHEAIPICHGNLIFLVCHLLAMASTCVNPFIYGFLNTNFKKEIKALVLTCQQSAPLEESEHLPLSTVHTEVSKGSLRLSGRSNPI
Protocol for 5HT1Dα: The cell line for the 5HT1Dα receptor, designated as Ltk-8-30-84, was deposited on Apr. […] The cell for the 5HT1Dβ receptor, designated as Ltk-11, was deposited on Apr. […] Membrane preparations comprising these receptors were prepared as described below, and suspended in 50 mM Tris-HCl buffer (pH 7.4 at 37° C.) containing 10 mM MgCl2, 0.2 mM EDTA, 10 μM pargyline, and 0.1% ascorbate. The binding of compounds was determined in competition binding assays by incubation for 30 minutes at 37° C. in the presence of 5 nM [^3H]serotonin. Nonspecific binding was determined in the presence of 10 μM serotonin.
Protocol for 5HT2: Human 5HT2 Receptor: The coding sequence of the human 5HT2 receptor was obtained from a human brain cortex cDNA library, and cloned into the cloning site of pcEXV-3 eukaryotic expression vector. […] Nonspecific binding was defined by the addition of 10 μM mianserin.

`Cl.O=S(=O)(NC[C@H]1CC[C@H](CNCC2CCc3ccccc3C2)CC1)c1cccc2ccccc12` (mixture of isomers) [Compound 19]: at 5HT1Dα, the “pKi 5HT1Dα” value is 6.04. Moreover, the Ki at human Y4 receptor turned out to be 11.7 µM; at human Y1 receptor, 3.55 µM; at human Y5 receptor [1], 0.011 µM. Also, on α2a, the “pKi α2a” value stood at 6.74. Moreover, the “pKi α1d” value at α1d is 6.90. At 5HT2, the “pKi 5HT2” value is on record as 6.55. In addition, at human Y5 receptor [2], the Kb is 0.023 µM.

For the molecule `Cl.O=[N+]([O-])c1ccccc1S(=O)(=O)NC[C@H]1CC[C@H](CNCC2CCc3ccccc3C2)CC1` (mixture of isomers) [Compound 20], on 5HT1Dα, the “pKi 5HT1Dα” value came out at 5.94. For the same molecule, the Ki was determined as 20.4 µM on human Y4 receptor, 16 µM on human Y1 receptor and 0.0083 µM at human Y5 receptor [1]. Also, the “pKi α2a” value at α2a amounted to 7.31. For the same molecule, the “pKi α1d” value on α1d is listed as 7.01. Moreover, the “pKi 5HT2” value at 5HT2 was found to be 5.93. Further, the Kb on human Y5 receptor [2] was found to be 0.026 µM.

For the molecule `Cl.Cl.Nc1ccccc1S(=O)(=O)NC[C@H]1CC[C@H](CNCC2CCc3ccccc3C2)CC1` (mixture of isomers) [Compound 22], on 5HT1Dα, the “pKi 5HT1Dα” value was 5.98. The Ki on human Y4 receptor is 27.5 µM; at human Y1 receptor, 17.2 µM; on human Y5 receptor [1], 0.011 µM. In addition, the “pKi α2a” value on α2a is 7.05. Further, at α1d, the “pKi α1d” value is 6.80. Besides, at 5HT2, the “pKi 5HT2” value came out at 5.99. Moreover, the Kb at human Y5 receptor [2] is 0.003 µM.

For the origin of these results see patent US6713265B1 (Synaptic Pharmaceutical Corporation, priority 1999, dated 2004).
